Structures can show the parent of a compound that is named as a salt.

T1 sequence (P37288 whole entry): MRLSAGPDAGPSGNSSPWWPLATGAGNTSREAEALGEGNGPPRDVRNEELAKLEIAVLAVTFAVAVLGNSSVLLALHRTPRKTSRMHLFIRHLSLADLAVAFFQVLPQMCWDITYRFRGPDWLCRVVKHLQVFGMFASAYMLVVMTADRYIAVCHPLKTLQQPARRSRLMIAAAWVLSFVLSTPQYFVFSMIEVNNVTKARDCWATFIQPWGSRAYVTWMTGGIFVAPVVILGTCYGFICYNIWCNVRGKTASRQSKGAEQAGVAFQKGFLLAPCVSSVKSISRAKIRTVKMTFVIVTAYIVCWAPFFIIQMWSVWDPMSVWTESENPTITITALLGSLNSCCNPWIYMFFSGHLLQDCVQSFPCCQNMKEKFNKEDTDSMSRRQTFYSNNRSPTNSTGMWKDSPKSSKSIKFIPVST

One assay has as its target T1, human V1a receptor (Homo sapiens, UniProt P37288).
T1 construct: expressed in transfected cells; host or cells: HEK293 cells, transiently transfected; membranes prepared
The experiment in a line: human V1a receptor binding (3H-Vasopressin SPA, HEK293 membranes).
Details: not given
As to the method: The human V1a receptor was cloned by RT-PCR from total human liver RNA. The coding sequence was subcloned in an expression vector after sequencing to confirm the identity of the amplified sequence. […] Cell membranes were prepared from HEK293 cells transiently transfected with the expression vector and grown in 20 liter fermenters with the following protocol.
50 g of cells are resuspended in 30 ml freshly prepared ice cold Lysis buffer (50 mM HEPES, 1 mM EDTA, 10 mM magnesium dichloride adjusted to pH=7.4+complete cocktail of protease inhibitor (Roche Diagnostics)). Homogenized with Polytron for 1 min and sonicated on ice for 2×2 minutes at 80% intensity (Vibracell sonicator). The preparation is centrifuged 20 min at 500 g at 4° C., the pellet is discarded and the supernatant centrifuged 1 hour at 43,000 g at 4° C. (19,000 rpm). The pellet is resuspended in 12.5 ml Lysis buffer+12.5 ml sucrose 20% and homogenized using a Polytron for 1-2 min. The protein concentration is determined by the Bradford method and aliquots are stored at −80° C. until use. For binding studies 60 mg Yttrium silicate SPA beads (Amersham®) are mixed with an aliquot of membrane in binding buffer (50 mM Tris, 120 mM sodium chloride, 5 mM potassium chloride, 2 mM calcium dichloride, 10 mM magnesium dichloride) for 15 minutes with mixing. 50 μl of bead/membrane mixture is then added to each well of a 96 well plate, followed by 50 μl of 4 nM 3H-Vasopressin (American Radiolabeled Chemicals). For total binding measurement 100 μl of binding buffer are added to the respective wells, for non-specific binding 100 μl of 8.4 mM cold vasopressin and for compound testing 100 μl of a serial dilution of each compound in 2% dimethyl sulfoxide. The plate is incubated 1 h at room temperature, centrifuged 1 min at 1000 g and counted on a Packard Top-Count. Non-specific binding counts are subtracted from each well and data is normalized to the maximum specific binding set at 100%. To calculate an IC50 the curve is fitted using a non-linear regression model (XLfit) and the Ki is calculated using the Cheng-Prussoff equation.
The compound `CN1Cc2cc(Cl)ccc2-n2c(nnc2[C@H]2CC[C@H](c3ccccc3)CC2)C1` [Example 3, trans-8-Chloro-5-methyl-1-(4-phenyl-cyclohexyl)-5,6-dihydro-4H-2,3,5,10b-tetraaza-benzo[e]azulene] had a Ki of 0.794 nM.
On the same count and under the same terms, as for `CC(C)(C)OC(=O)N1Cc2cc(Cl)ccc2-n2c(nnc2[C@H]2CC[C@H](c3cccc4ccccc43)CC2)C1` [Example 19, trans-8-Chloro-1-(4-naphthalen-1-yl-cyclohexyl)-4H,6H-2,3,5,10b-tetraaza-benzo[e]azulene-5-carboxylic acid tert-butyl ester], the figure is 6.03 nM.

Still in this assay, the particulars now being: 3H-Vasopressin displacement, membranes of HEK293 cells transiently transfected with human V1a; Ki from IC50 by Cheng-Prussoff; read-out: pKi (hV1a) (converted).
In the case of `CC(C)(C)OC(=O)N1Cc2cc(Cl)ccc2-n2c(nnc2[C@H]2CC[C@H](c3ccccc3)CC2)C1` [Example 1, trans-8-Chloro-1-(4-phenyl-cyclohexyl)-4H,6H-2,3,5,10b-tetraaza-benzo[e]azulene-5-carboxylic acid tert-butyl ester], the Ki is 6.46 nM.
Same read-out and setting: the value for `Clc1ccc2c(c1)CNCc1nnc([C@H]3CC[C@H](c4ccccc4)CC3)n1-2` [Example 2, trans-8-Chloro-1-(4-phenyl-cyclohexyl)-5,6-dihydro-4H-2,3,5,10b-tetraaza-benzo[e]azulene hydrochloride] was 2.09 nM; that for `Cc1ccccc1[C@H]1CC[C@@H](c2nnc3n2-c2ccc(Cl)cc2CN(C)C3)CC1` [Example 4, cis-8-Chloro-5-methyl-1-(4-o-tolyl-cyclohexyl)-5,6-dihydro-4H-2,3,5,10b-tetraaza-benzo[e]azulene] was 16.2 nM.
Consider `Cc1ccccc1[C@H]1CC[C@H](c2nnc3n2-c2ccc(Cl)cc2CN(C)C3)CC1` [Example 5, trans-8-Chloro-5-methyl-1-(4-o-tolyl-cyclohexyl)-5,6-dihydro-4H-2,3,5,10b-tetraaza-benzo[e]azulene], for which the Ki is 4.27 nM.
As to `Cc1ccccc1[C@H]1CC[C@@H](c2nnc3n2-c2ccccc2CN(C)C3)CC1` [Example 6, cis-5-Methyl-1-(4-o-tolyl-cyclohexyl)-5,6-dihydro-4H-2,3,5,10b-tetraaza-benzo[e]azulene], the Ki is 339 nM.
On to `CC(C)(C)OC(=O)N1Cc2cc(Cl)ccc2-n2c(nnc2[C@H]2CC[C@@H](c3ccc(F)cc3)CC2)C1` [Example 7], for which the Ki was 52.5 nM.
`Fc1ccc([C@H]2CC[C@@H](c3nnc4n3-c3ccc(Cl)cc3CNC4)CC2)cc1` [Example 8, cis-8-Chloro-1-[4-(4-fluoro-phenyl)-cyclohexyl]-5,6-dihydro-4H-2,3,5,10b-tetraaza-benzo[e]azulene hydrochloride]: the Ki is 302 nM.
In the case of `CN1Cc2cc(Cl)ccc2-n2c(nnc2[C@H]2CC[C@@H](c3ccc(F)cc3)CC2)C1` [Example 9, cis-8-Chloro-1-[4-(4-fluoro-phenyl)-cyclohexyl]-5-methyl-5,6-dihydro-4H-2,3,5,10b-tetraaza-benzo[e]azulene], the Ki was 30.2 nM.
As to `CC(C)(C)OC(=O)N1Cc2cc(Cl)ccc2-n2c(nnc2[C@H]2CC[C@H](c3ccc(F)cc3)CC2)C1` [Example 10], the Ki is 4.68 nM.
For the compound `Fc1ccc([C@H]2CC[C@H](c3nnc4n3-c3ccc(Cl)cc3CNC4)CC2)cc1` [Example 11, trans-8-Chloro-1-[4-(4-fluoro-phenyl)-cyclohexyl]-5,6-dihydro-4H-2,3,5,10b-tetraaza-benzo[e]azulene hydrochloride], the Ki was 6.31 nM.
On to `CN1Cc2cc(Cl)ccc2-n2c(nnc2[C@H]2CC[C@H](c3ccc(F)cc3)CC2)C1` [Example 12, trans-8-Chloro-1-[4-(4-fluoro-phenyl)-cyclohexyl]-5-methyl-5,6-dihydro-4H-2,3,5,10b-tetraaza-benzo[e]azulene], for which the Ki is 2.19 nM.
Still for that read-out and setting: as for `CC(C)(C)OC(=O)N1Cc2cc(Cl)ccc2-n2c(nnc2[C@H]2CC[C@H](c3cccc(OC(F)(F)F)c3)CC2)C1` [Example 13, trans-8-Chloro-1-[4-(3-trifluoromethoxy-phenyl)-cyclohexyl]-4H,6H-2,3,5,10b-tetraaza-benzo[e]azulene-5-carboxylic acid tert-butyl ester], the figure is 18.2 nM.
Consider `FC(F)(F)Oc1cccc([C@H]2CC[C@H](c3nnc4n3-c3ccc(Cl)cc3CNC4)CC2)c1` [Example 14, trans-8-Chloro-1-[4-(3-trifluoromethoxy-phenyl)-cyclohexyl]-5,6-dihydro-4H-2,3,5,10b-tetraaza-benzo[e]azulene hydrochloride], for which the Ki is 57.5 nM.
On to `CN1Cc2cc(Cl)ccc2-n2c(nnc2[C@H]2CC[C@H](c3cccc(OC(F)(F)F)c3)CC2)C1` [Example 15, trans-8-Chloro-5-methyl-1-[4-(3-trifluoromethoxy-phenyl)-cyclohexyl]-5,6-dihydro-4H-2,3,5,10b-tetraaza-benzo[e]azulene], for which the Ki was 10.2 nM.
In the case of `CC(C)(C)OC(=O)N1Cc2cc(Cl)ccc2-n2c(nnc2[C@H]2CC[C@H](c3cccc(F)c3Cl)CC2)C1` [Example 16, trans-8-Chloro-1-[4-(2-chloro-3-fluoro-phenyl)-cyclohexyl]-4H,6H-2,3,5,10b-tetraaza-benzo[e]azulene-5-carboxylic acid tert-butyl ester], the Ki was 4.17 nM.
Turning to `Fc1cccc([C@H]2CC[C@H](c3nnc4n3-c3ccc(Cl)cc3CNC4)CC2)c1Cl` [Example 17, trans-8-Chloro-1-[4-(2-chloro-3-fluoro-phenyl)-cyclohexyl]-5,6-dihydro-4H-2,3,5,10b-tetraaza-benzo[e]azulene hydrochloride], the Ki is 15.1 nM.
As to `CN1Cc2cc(Cl)ccc2-n2c(nnc2[C@H]2CC[C@H](c3cccc(F)c3Cl)CC2)C1` [Example 18, trans-8-Chloro-1-[4-(2-chloro-3-fluoro-phenyl)-cyclohexyl]-5-methyl-5,6-dihydro-4H-2,3,5,10b-tetraaza-benzo[e]azulene], the Ki is 3.09 nM.
On to `Clc1ccc2c(c1)CNCc1nnc([C@H]3CC[C@H](c4cccc5ccccc54)CC3)n1-2` [Example 20, trans-8-Chloro-1-(4-naphthalen-1-yl-cyclohexyl)-5,6-dihydro-4H-2,3,5,10b-tetraaza-benzo[e]azulene hydrochloride], for which the Ki was 20.4 nM.
As for `CN1Cc2cc(Cl)ccc2-n2c(nnc2[C@H]2CC[C@H](c3cccc4ccccc43)CC2)C1` [Example 21, trans-8-Chloro-5-methyl-1-(4-naphthalen-1-yl-cyclohexyl)-5,6-dihydro-4H-2,3,5,10b-tetraaza-benzo[e]azulene], the Ki is 7.59 nM.
The same measure, in the same setting: as for `COc1ccc(F)cc1[C@H]1CC[C@H](c2nnc3n2-c2ccc(Cl)cc2CN(C(=O)OC(C)(C)C)C3)CC1` [Example 22, trans-8-Chloro-1-[4-(5-fluoro-2-methoxy-phenyl)-cyclohexyl]-4H,6H-2,3,5,10b-tetraaza-benzo[e]azulene-5-carboxylic acid tert-butyl ester], the figure is 11.2 nM; as for `COc1ccc(F)cc1[C@H]1CC[C@H](c2nnc3n2-c2ccc(Cl)cc2CNC3)CC1` [Example 23, trans-8-Chloro-1-[4-(5-fluoro-2-methoxy-phenyl)-cyclohexyl]-5,6-dihydro-4H-2,3,5,10b-tetraaza-benzo[e]azulene hydrochloride], 42.7 nM; as for `COc1ccc(F)cc1[C@H]1CC[C@H](c2nnc3n2-c2ccc(Cl)cc2CN(C)C3)CC1` [Example 24, trans-8-Chloro-1-[4-(5-fluoro-2-methoxy-phenyl)-cyclohexyl]-5-methyl-5,6-dihydro-4H-2,3,5,10b-tetraaza-benzo[e]azulene], 5.75 nM.

(Values after patent US8420633B2 (Hoffmann-La Roche Inc., priority 2010, dated 2013).)
